Test [1] has as its system ISC-enriched organoids. Put plainly: Primary screen, 384-well 2.5-D organoid differentiation (ENR+CD, 6 days): carbachol-induced lysozyme secretion (LYZ.S). As to conditions: for Dose.FC.LYZ.S: FC vs plate median; for Z.LYZ.S: standard z score; for SSMD.LYZ.S: strictly standardized mean difference. It is filed as cell-based, murine. The text has this:
(§1) High-throughput screening.

The subject of test [2] is ISC-enriched organoids. Put plainly: Primary screen, 384-well 2.5-D organoid differentiation (ENR+CD, 6 days, Target Selective Inhibitor Library, vs whole-plate median): ATP (CellTiter-Glo 3D, CTG). To be noted: for Dose.FC.CTG: FC vs plate median; for SSMD.CTG: strictly standardized mean difference.
Test [3] relates to ISC-enriched organoids. Kind of test: Primary screen, 384-well 2.5-D organoid differentiation (ENR+CD, 6 days): basal lysozyme secretion (LYZ.NS). As to conditions: for Dose.FC.LYZ.NS: FC vs plate median; for SSMD.LYZ.NS: strictly standardized mean difference. The class given is cell-based, murine.
Source text: as §1

Where [4] appears, read: primary screen, 3rd of the 4 dose lines of the treatment (dose not given).
Where [5] appears, read: primary screen, 4th of the 4 dose lines of the treatment (dose not given).
Setting [6] is: Dose 0.08 uM, primary screen, standard z score.
Where [7] appears, read: Dose 0.40 uM, primary screen, standard z score.
Setting [8] is: Dose 2.00 uM, primary screen, standard z score.
Where [9] appears, read: Dose 10.00 uM, primary screen, standard z score.
The mark [10] stands for this setting: Dose 0.08 uM, standard z score of FC.
[11] abbreviates: Dose 0.40 uM, standard z score of FC.
Where [12] appears, read: Dose 2.00 uM, standard z score of FC.
Where [13] appears, read: Dose 10.00 uM, standard z score of FC.

Regarding `Cn1cc(/C=C2\C(=O)Nc3cccnc32)c2ccccc21` [GW441756], the Dose.FC.LYZ.S is 0.075 log 2 fold change in test [1] (Dose 0.08 uM, primary screen); 0.196 log 2 fold change in test [1] (Dose 0.40 uM, primary screen); 0.125 log 2 fold change in test [1] (Dose 2.00 uM, primary screen); 0.071 log 2 fold change in test [1] (Dose 10.00 uM, primary screen). The Z.LYZ.S in test [1] (setting [4]) came out at 0.806; in test [1] (setting [5]) it was 0.458. The SSMD.LYZ.S in test [1] (setting [4]) worked out at 0.911; in test [1] (setting [5]) it was 0.449. The Dose.FC.CTG in test [2] (Dose 0.08 uM, primary screen) is on record as 0.048 log 2 fold change; in test [2] (Dose 0.40 uM, primary screen), −0.105 log 2 fold change; in test [2] (Dose 2.00 uM, primary screen) it was 0.152 log 2 fold change; in test [2] (Dose 10.00 uM, primary screen), −0.113 log 2 fold change. Besides, the Z.CTG in test [2] (setting [6]) was 0.114; in test [2] (setting [7]) it was −0.252; in test [2] (setting [8]), 0.364; in test [2] (setting [9]), −0.270. In addition, the results for the SSMD.CTG in test [2] (setting [4]) and in test [2] (setting [5]) were 0.468 and −0.350, respectively. The Dose.FC.LYZ.NS worked out at 0.046 log 2 fold change in test [3] (Dose 0.08 uM, primary screen); 0.061 log 2 fold change in test [3] (Dose 0.40 uM, primary screen); 0.117 log 2 fold change in test [3] (Dose 2.00 uM, primary screen); 0.088 log 2 fold change in test [3] (Dose 10.00 uM, primary screen). Moreover, the Z.LYZ.NS is 0.399 in test [3] (setting [6]), 0.529 in test [3] (setting [7]), 1.023 in test [3] (setting [8]) and 0.763 in test [3] (setting [9]). The results for the SSMD.LYZ.NS in test [3] (setting [4]) and in test [3] (setting [5]) were 1.215 and 0.357, respectively.

In the case of `CC(C)c1cc(-c2n[nH]c(=O)n2-c2ccc3c(ccn3C)c2)c(O)cc1O` [Ganetespib (STA-9090)], the Dose.FC.LYZ.S was −0.260 log 2 fold change in test [1] (Dose 0.08 uM, ENR+CD, 6 days); −0.250 log 2 fold change in test [1] (Dose 0.40 uM, ENR+CD, 6 days); −0.260 log 2 fold change in test [1] (Dose 2.00 uM, ENR+CD, 6 days); −0.267 log 2 fold change in test [1] (Dose 10.00 uM, ENR+CD, 6 days). Also, the Dose.FC.CTG in test [2] (Dose 0.08 uM, ENR+CD, 6 days) was −1.450 log 2 fold change; in test [2] (Dose 0.40 uM, ENR+CD, 6 days), −2.105 log 2 fold change; in test [2] (Dose 2.00 uM, ENR+CD, 6 days), −1.721 log 2 fold change; in test [2] (Dose 10.00 uM, ENR+CD, 6 days) it was −1.620 log 2 fold change. Moreover, the Z.CTG in test [2] (setting [10]) is reported as −3.465; in test [2] (setting [11]), −5.027; in test [2] (setting [12]), −4.110; in test [2] (setting [13]) it was −3.871. For the same compound, the Dose.FC.LYZ.NS is −0.141 log 2 fold change in test [3] (Dose 0.08 uM, ENR+CD, 6 days); −0.155 log 2 fold change in test [3] (Dose 0.40 uM, ENR+CD, 6 days); −0.150 log 2 fold change in test [3] (Dose 2.00 uM, ENR+CD, 6 days); −0.136 log 2 fold change in test [3] (Dose 10.00 uM, ENR+CD, 6 days). Further, the Z.LYZ.NS in test [3] (setting [10]) is listed as −1.226; in test [3] (setting [11]) it was −1.345; in test [3] (setting [12]), −1.309; in test [3] (setting [13]), −1.181.

In the case of `C[C@@H]1C(=O)O[C@H]2C[C@@]34[C@H]5C[C@@H](C(C)(C)C)[C@]36[C@@H](OC(=O)[C@@H]6O)O[C@@]4(C(=O)O5)[C@]21O` [Ginkgolide A], the Dose.FC.LYZ.S in test [1] (Dose 0.08 uM, ENR+CD, 6 days) is given as 0.124 log 2 fold change; in test [1] (Dose 0.40 uM, ENR+CD, 6 days) it was 0.161 log 2 fold change; in test [1] (Dose 2.00 uM, ENR+CD, 6 days) it was 0.002 log 2 fold change; in test [1] (Dose 10.00 uM, ENR+CD, 6 days), −0.028 log 2 fold change. Moreover, the Dose.FC.CTG in test [2] (Dose 0.08 uM, ENR+CD, 6 days) is 0.005 log 2 fold change; in test [2] (Dose 0.40 uM, ENR+CD, 6 days), −0.017 log 2 fold change; in test [2] (Dose 2.00 uM, ENR+CD, 6 days), 0.040 log 2 fold change; in test [2] (Dose 10.00 uM, ENR+CD, 6 days), −0.012 log 2 fold change. Further, the Z.CTG in test [2] (setting [10]) is 0.011; in test [2] (setting [11]), −0.040; in test [2] (setting [12]), 0.095; in test [2] (setting [13]), −0.028. In addition, the Dose.FC.LYZ.NS in test [3] (Dose 0.08 uM, ENR+CD, 6 days) stood at 0.045 log 2 fold change; in test [3] (Dose 0.40 uM, ENR+CD, 6 days), 0.025 log 2 fold change; in test [3] (Dose 2.00 uM, ENR+CD, 6 days), 0.030 log 2 fold change; in test [3] (Dose 10.00 uM, ENR+CD, 6 days) it was 0.052 log 2 fold change. In addition, the Z.LYZ.NS in test [3] (setting [10]) stood at 0.395; in test [3] (setting [11]), 0.222; in test [3] (setting [12]), 0.258; in test [3] (setting [13]), 0.450.

Values taken from US20230398130A1, “METHODS AND COMPOSITIONS FOR DIFFERENTIATING STEM CELLS” (Massachusetts Institute of Technology, priority 2020, published 2023).
